We go through 4 molecules from ChEMBL document CHEMBL4354872, “Use of Non-Natural Amino Acids for the Design and Synthesis of a Selective, Cell-Permeable MALT1 Activity-Based Probe” (J Med Chem, 2020).

Calls of active or inactive are those of the source. No cut-off for these calls is given here.

As a reminder, the Ki is the dissociation constant of the complex between target and ligand, obtained from inhibition or displacement.

The target of experiment [1] is T1, Mucosa-associated lymphoid tissue lymphoma translocation protein 1 (Homo sapiens) (UniProt Q9UDY8).
T1 sequence (whole entry): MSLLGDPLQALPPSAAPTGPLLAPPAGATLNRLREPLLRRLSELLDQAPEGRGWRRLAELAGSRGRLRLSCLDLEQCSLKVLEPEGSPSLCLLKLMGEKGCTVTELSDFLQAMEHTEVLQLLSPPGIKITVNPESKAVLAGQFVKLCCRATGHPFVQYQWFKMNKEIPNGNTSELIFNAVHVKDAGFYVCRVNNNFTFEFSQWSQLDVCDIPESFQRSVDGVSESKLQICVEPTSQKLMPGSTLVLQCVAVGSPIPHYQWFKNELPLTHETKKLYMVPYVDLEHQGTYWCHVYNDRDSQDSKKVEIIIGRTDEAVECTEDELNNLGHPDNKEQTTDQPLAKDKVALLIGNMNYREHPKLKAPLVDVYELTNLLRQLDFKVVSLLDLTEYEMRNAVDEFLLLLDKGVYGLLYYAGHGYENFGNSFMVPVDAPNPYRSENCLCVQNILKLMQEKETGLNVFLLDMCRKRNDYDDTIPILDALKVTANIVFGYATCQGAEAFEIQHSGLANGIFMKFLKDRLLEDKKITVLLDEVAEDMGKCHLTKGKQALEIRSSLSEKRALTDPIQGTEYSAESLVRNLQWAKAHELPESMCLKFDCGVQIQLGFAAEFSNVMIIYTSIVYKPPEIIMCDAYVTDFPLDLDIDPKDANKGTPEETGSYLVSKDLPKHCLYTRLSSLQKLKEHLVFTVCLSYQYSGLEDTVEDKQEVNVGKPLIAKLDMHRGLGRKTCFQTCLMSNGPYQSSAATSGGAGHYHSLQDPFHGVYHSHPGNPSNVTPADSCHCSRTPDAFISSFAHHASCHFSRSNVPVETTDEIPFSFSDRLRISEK
Put plainly: Inhibition of full length wild type human N-terminal GST-tagged MALT1 catalytic domain (325 to 760 residues) expressed in Escherichia coli BL21 (DE3) assessed as increase in fluorescence at 0.5 uL using Ac-LRSR-AMC as substrate preincubated for 20 mins followed by substrate addition measured after 60 to 120 mins by fluorescence plate reader assay.

Experiment [2] concerns the target T2, Cathepsin B (Homo sapiens, UniProt P07858). As to the kind of experiment: Inhibition of recombinant human cathepsin B expressed in Escherichia coli BL21 (DE3) assessed as increase in fluorescence at 0.5 uL using zRR-AMC as substrate measured after 60 to 80 mins by fluorescence plate reader assay.
Experiment [3] concerns the target T2, Cathepsin B. Put plainly: Inhibition of recombinant human cathepsin B expressed in Escherichia coli BL21 (DE3) assessed as increase in fluorescence at 0.5 uL using zRR-AMC as substrate measured after 60 to 80 mins by fluorescence plate reader assay relative to Z-VRPR-FMK.
For experiment [4], the target named is T3, Mucosa-associated lymphoid tissue lymphoma translocation protein 1 (Homo sapiens, UniProt Q9UDY8).
T3 sequence (Q9UDY8 whole entry): T1 sequence (whole entry)
As to the kind of experiment: Inhibition of […] wild type human N-terminal GST-tagged MALT1 catalytic domain (325 to 760 residues) expressed in Escherichia coli BL21 (DE3) using Ac-LVPipR-ACC as substrate measured after 2 hrs by microplate reader assay.

The target in experiment [5] is T1, Mucosa-associated lymphoid tissue lymphoma translocation protein 1 (Homo sapiens). As to the kind of experiment: Inhibition of […] wild type human N-terminal GST-tagged MALT1 catalytic domain (325 to 760 residues) expressed in Escherichia coli BL21 (DE3) assessed as inactivation rate constant using Ac-LVPipR-ACC as substrate measured after 2 hrs by microplate reader assay.

Experiment [6] concerns the target T2, Cathepsin B. Put plainly: Inhibition of recombinant human cathepsin B expressed in Escherichia coli BL21 (DE3) using zRR-AMC as substrate measured after 2 hrs by fluorescence plate reader assay.
For experiment [7], the target named is T1, Mucosa-associated lymphoid tissue lymphoma translocation protein 1 (Homo sapiens). As to the kind of experiment: Covalent binding affinity to Streptag2-tagged MALT1 stably reconstituted in human knockout Jurkat cells assessed as PMA/ionomycin stimulated ABP labeling of MALT1 by measuring cleavage of CYLD substrate using CYLD as substrate at 3 uM pretreated for PMA/ionomycin with 30 mins followed by compound treatment and further incubated for 3 hrs by Western blot analysis. The class given is cell-based. A general note: In western blotting, separated proteins are transferred to a membrane and probed.

The species entered for experiment [8] is Homo sapiens. Put plainly: Covalent binding affinity to MALT1 C453/A mutant (unknown origin) assessed as PMA/ionomycin stimulated ABP labeling of MALT1 by measuring cleavage of CYLD substrate using CYLD as substrate at 3 uM pretreated with PMA/ionomycin for 30 mins followed by compound treatment and further incubated for 3 hrs by Western blot analysis.
For experiment [9], the target named is T1, Mucosa-associated lymphoid tissue lymphoma translocation protein 1 (Homo sapiens). As to the kind of experiment: Covalent binding affinity to MALT1 in wild type human Jurkat cell lysate assessed as PMA/ionomycin stimulated ABP labeling by protein-compound adduct formation at 3 uM pretreated with PMA/ionomycin for 30 mins followed by compound treatment after 3 hrs by laser imaging analysis. Type of experiment: subcellular.

Experiment [10] deals with T2, Cathepsin B. Put plainly: Covalent binding affinity to cathepsin B in wild type human Jurkat cell lysate assessed as ABP labeling by protein-compound adduct formation at 3 uM after 3 hrs by laser imaging analysis. The class given is subcellular.
For experiment [11], the target named is T1, Mucosa-associated lymphoid tissue lymphoma translocation protein 1 (Homo sapiens). Put plainly: Inhibition of MALT1 in human HBL1 assessed as assessed as reduction in Relb substrate cleavage after 5 hrs in presence of proteasome inhibitor by Western blot analysis.
The target is the same in experiment [12]. As to the kind of experiment: Binding affinity to MALT1 in human Jurkat cells assessed as ABP labeling of protein at 3 uM pretreated with compound for 3 hrs followed by PMA/ionomycin stimulation for 30 mins by laser imaging analysis. The class given is cell-based.
Experiment [13] concerns the target T2, Cathepsin B. Put plainly: Binding affinity to cathepsin B in human Jurkat cells assessed as ABP labeling of protein at 3 uM pretreated with compound for 3 hrs followed by PMA/ionomycin stimulation for 30 mins by laser imaging analysis. Type of experiment: cell-based.
Experiment [14] concerns the target T2, Cathepsin B. As to the kind of experiment: Inhibition of recombinant human cathepsin B expressed in Escherichia coli BL21 (DE3) assessed as inactivation rate constant using zRR-AMC as substrate measured after 2 hrs by fluorescence plate reader assay.
The target in experiment [15] is T1, Mucosa-associated lymphoid tissue lymphoma translocation protein 1 (Homo sapiens). As to the kind of experiment: Inhibition of MALT1 in human HBL1 assessed as assessed as reduction in Relb substrate cleavage at 3 to 30 uM after 5 hrs in presence of proteasome inhibitor by Western blot analysis.
The target is the same in experiment [16]. As to the kind of experiment: Competitive binding affinity to MALT1 in wild type human Jurkat cell lysate assessed as PMA/ionomycin stimulated ABP labeling by protein-compound adduct formation at 3 uM pretreated with 25 uM of MALT1 inhibitor s-mepazine for 2 hrs followed by PMA/ionomycin stimulation for 30 mins and subsequent compound addition measured after 3 hrs by Western blot analysis. The class given is subcellular.

For experiment [17] the target is unchanged. As to the kind of experiment: Competitive binding affinity to MALT1 in wild type human Jurkat cell lysate assessed as PMA/ionomycin stimulated ABP labeling by protein-compound adduct formation at 3 uM pretreated with 25 uM of MALT1 inhibitor z-VRPR-FMK for 2 hrs followed by PMA/ionomycin stimulation for 30 mins and subsequent compound addition measured after 3 hrs by Western blot analysis. Type of experiment: subcellular.

Experiment [18] addresses T2, Cathepsin B. Put plainly: Competitive binding affinity to cathepsin B in wild type human Jurkat cell lysate assessed as PMA/ionomycin stimulated ABP labeling by protein-compound adduct formation at 3 uM pretreated with 25 uM of MALT1 inhibitor z-VRPR-FMK for 2 hrs followed by PMA/ionomycin stimulation for 30 mins and subsequent compound addition measured after 3 hrs by Western blot analysis. Type of experiment: subcellular.

Experiment [19] deals with T2, Cathepsin B. Put plainly: Competitive binding affinity to cathepsin B in wild type human Jurkat cell lysate assessed as PMA/ionomycin stimulated ABP labeling by protein-compound adduct formation at 3 uM pretreated with 5 uM of MALT1 inhibitor CA-074ME for 2 hrs followed by PMA/ionomycin stimulation for 30 mins and subsequent compound addition measured after 3 hrs by Western blot analysis. The class given is subcellular.

Turning to `CC1=CC(C)=[N+]2C1=C(CCCc1cn(CCCCCC(=O)N[C@@H](CC(C)C)C(=O)N[C@H](C(=O)N3CCCC[C@H]3C(=O)N[C@@H](CCCNC(=N)N)C(=O)COC(=O)c3c(C)cccc3C)C(C)C)nn1)c1c(C)cc(C)n1[B-]2(F)F`, the inhibition result in experiment [1] and in experiment [2] was “Active” each time. In addition, the fold change (FC) in [3] came out at 50. The Ki was 170 nM in [4] and more than 10000 nM in [6]. Besides, in [5], the Kinact was 1.7 ×10⁻³ /s. For the same molecule, the outcome in experiment [7] and in experiment [9] was Active. Besides, the result in experiment [8], in experiment [10], in experiment [12] and in [13] was inactive. Besides, in experiment [11], the inhibition entry was “Dose-dependent effect”.
Turning to `CC(C)[C@H](NC(=O)OCc1ccccc1)C(=O)N[C@@H](CCCNC(=N)N)C(=O)N1CCC[C@H]1C(=O)N[C@@H](CCCNC(=N)N)C(=O)CF`, the inhibition result in experiment [1] and in experiment [2] was “Active” each time.
For the molecule `CC1=CC(C)=[N+]2C1=Cc1ccc(CCC(=O)N[C@@H](CC(C)C)C(=O)N[C@@H](CCCNC(=N)N)C(=O)N[C@@H](CO)C(=O)N[C@@H](CCCNC(=N)N)C(=O)COC(=O)c3c(C)cccc3C)n1[B-]2(F)F`, the inhibition entry in experiment [1] and in experiment [2] was “Active” each time. For the same molecule, the Ki was 340 nM in experiment [4] and 630 nM in experiment [6]. For the same molecule, the results for the Kinact in experiment [5] and in [14] were 2 ×10⁻³ /s and 9.6 ×10⁻³ /s, respectively. The outcome in experiment [7], in experiment [9], in experiment [10], in [12] and in [13] was Active. The outcome in experiment [8] was inactive. Further, the inhibition result in experiment [15] is “inactive”.
`CC1=CC(C)=[N+]2C1=C(CCCc1cn(CCCCCC(=O)N[C@@H](CC(C)C)C(=O)N[C@H](C(=O)N[C@@H](CO)C(=O)N[C@@H](CCCNC(=N)N)C(=O)COC(=O)c3c(C)cccc3C)C(C)C)nn1)c1c(C)cc(C)n1[B-]2(F)F`: the inhibition result in [1] and in [2] was “Active” in each case. The Ki in [4] and in [6] was 210 nM throughout. The Kinact was 1.1 ×10⁻³ /s in [5] and 4.1 ×10⁻³ /s in experiment [14]. Further, the outcome in experiment [7], in [9], in experiment [10], in [12] and in experiment [13] was Active. Also, the outcome in [8], in experiment [16], in [17], in experiment [18] and in experiment [19] was inactive. In experiment [11], the inhibition entry was “Dose-dependent effect”.
